Columns and labels:
Assay type in all cases: cell-based
OVCAR-3 = test: Cancer cell panel, cell viability (resazurin): Ovarian, OVCAR-3; details: OVCAR-3 (Ovarian), 72 hours; labelled drug combined with Example 3
Description: (§1) Cells were plated in 96-well plates and treated for 72 hours with a serially diluted CK2 inhibitor or anti-cancer drug or their combination. The suspension cell lines were treated right after plating, while the adherent cells were allowed to attach overnight prior to the start of the treatment.
(§2) Cell viability was determined by adding resazurin to cell cultures and measuring fluorescence with a plate reader. Relative cell viability was calculated by dividing the cell viability signal from a test sample by that of a non-treated control. […] Bliss Independence and Highest Single Agent models were used to determine if there is synergy, additivity or antagonism between the CK2 inhibitor and an anti-cancer drug.

A2780 = test: Cancer cell panel, cell viability (resazurin): Ovarian, A2780; details: 72 hours, labelled drug combined with Example 3
Description: as §1, §2

Caov-3 = test: Cancer cell panel, cell viability (resazurin): Ovarian, Caov-3; details: Caov-3 (Ovarian), 72 hours; labelled drug combined with Example 3
Mia-Paca-2 = test: Cancer cell panel, cell viability (resazurin): Pancreatic, Mia-Paca-2; details: Mia-Paca-2 (Pancreatic), 72 hours; labelled drug combined with Example 3
Description: as §1, §2

Panc-1 = test: Cancer cell panel, cell viability (resazurin): Pancreatic, Panc-1; details: Panc-1 (Pancreatic), 72 hours; labelled drug combined with Example 3
BxPC3 = test: Cancer cell panel, cell viability (resazurin): Pancreatic, BxPC3; details: 72 hours, labelled drug combined with Example 3
HCT116 = test: Cancer cell panel, cell viability (resazurin): Colon, HCT116; details: 72 hours, labelled drug combined with Example 3
HT29 = test: Cancer cell panel, cell viability (resazurin): Colon, HT29; details: 72 hours, labelled drug combined with Example 3
Description: as §1, §2

Colo205 = test: Cancer cell panel, cell viability (resazurin): Colon, Colo205; details: 72 hours, labelled drug combined with Example 3
LoVo = test: Cancer cell panel, cell viability (resazurin): Colon, LoVo; details: 72 hours, labelled drug combined with Example 3
DLD-1 = test: Cancer cell panel, cell viability (resazurin): Colon, DLD-1; details: DLD-1 (Colon), 72 hours; labelled drug combined with Example 3
Description: as §1, §2

H1299 = test: Cancer cell panel, cell viability (resazurin): NSCLC, H1299; details: 72 hours, labelled drug combined with Example 3
A549 = test: Cancer cell panel, cell viability (resazurin): NSCLC, A549; details: 72 hours, labelled drug combined with Example 3
H460 = test: Cancer cell panel, cell viability (resazurin): NSCLC, H460; details: 72 hours, labelled drug combined with Example 3
H1975 = test: Cancer cell panel, cell viability (resazurin): NSCLC, H1975; details: 72 hours, labelled drug combined with Example 3
H23 = test: Cancer cell panel, cell viability (resazurin): NSCLC, H23; details: 72 hours, labelled drug combined with Example 3
MDA-MB-231 = test: Cancer cell panel, cell viability (resazurin): Breast, MDA-MB-231; details: MDA-MB-231 (Breast), 72 hours; labelled drug combined with Example 3
MDA-MB-157 = test: Cancer cell panel, cell viability (resazurin): Breast, MDA-MB-157; details: MDA-MB-157 (Breast), 72 hours; labelled drug combined with Example 3
BT-20 = test: Cancer cell panel, cell viability (resazurin): Breast, BT-20; details: BT-20 (Breast), 72 hours; labelled drug combined with Example 3
Description: as §1, §2

ZR-75-1 = test: Cancer cell panel, cell viability (resazurin): Breast, ZR-75-1; details: ZR-75-1 (Breast), 72 hours; labelled drug combined with Example 3
786-O = test: Cancer cell panel, cell viability (resazurin): Renal, 786-O; details: 786-O (Renal), 72 hours; labelled drug combined with Example 3
Caki-1 = test: Cancer cell panel, cell viability (resazurin): Renal, Caki-1; details: Caki-1 (Renal), 72 hours; labelled drug combined with Example 3
Description: as §1, §2

Caki-2 = test: Cancer cell panel, cell viability (resazurin): Renal, Caki-2; details: Caki-2 (Renal), 72 hours; labelled drug combined with Example 3
A375 = test: Cancer cell panel, cell viability (resazurin): Melanoma, A375; details: 72 hours, labelled drug combined with Example 3
Description: as §1, §2

SK-MEL-3 = test: Cancer cell panel, cell viability (resazurin): Melanoma, SK-MEL-3; details: SK-MEL-3 (Melanoma), 72 hours; labelled drug combined with Example 3
SK-MEL-24 = test: Cancer cell panel, cell viability (resazurin): Melanoma, SK-MEL-24; details: SK-MEL-24 (Melanoma), 72 hours; labelled drug combined with Example 3
WM-115 = test: Cancer cell panel, cell viability (resazurin): Melanoma, WM-115; details: WM-115 (Melanoma), 72 hours; labelled drug combined with Example 3
Description: as §1, §2

MeWO = test: Cancer cell panel, cell viability (resazurin): Melanoma, MeWO; details: 72 hours, labelled drug combined with Example 3
U266 = test: Cancer cell panel, cell viability (resazurin): multiple myeloma, U266; details: 72 hours, labelled drug combined with Example 3
Description: as §1, §2

RPMI8226 = test: Cancer cell panel, cell viability (resazurin): multiple myeloma, RPMI8226; details: 72 hours, labelled drug combined with Example 3
U87MG = test: Cancer cell panel, cell viability (resazurin): Glioblastoma, U87MG; details: 72 hours, labelled drug combined with Example 3
Description: as §1, §2

K562 = test: Cancer cell panel, cell viability (resazurin): Leukemia, K562; details: 72 hours, labelled drug combined with Example 3
Description: as §1, §2

HL60 = test: Cancer cell panel, cell viability (resazurin): Leukemia, HL60; details: 72 hours, labelled drug combined with Example 3
Description: as §1, §2

EOL-1 = test: Cancer cell panel, cell viability (resazurin): Leukemia, EOL-1; details: EOL-1 (Leukemia), 72 hours; labelled drug combined with Example 3
Description: as §1, §2

MOLT4 = test: Cancer cell panel, cell viability (resazurin): Leukemia, MOLT4; details: 72 hours, labelled drug combined with Example 3
Description: as §1, §2

What does the source list for `CC(=O)Nc1cccc(-n2c(=O)n(C3CC3)c(=O)c3c(Nc4ccc(I)cc4F)n(C)c(=O)c(C)c32)c1` [Trametinib, trametinib]?
synergy, additivity or antagonism of the combination of Example 3 with the anti-cancer drug (OVCAR-3): + + (Slight synergy relative to each agent alone (CI = 0.75-0.9 by Bliss Independence Model)); synergy, additivity or antagonism of the combination of Example 3 with the anti-cancer drug (A2780): + + (Slight synergy relative to each agent alone (CI = 0.75-0.9 by Bliss Independence Model)); synergy, additivity or antagonism of the combination of Example 3 with the anti-cancer drug (Caov-3): + + (Slight synergy relative to each agent alone (CI = 0.75-0.9 by Bliss Independence Model)); synergy, additivity or antagonism of the combination of Example 3 with the anti-cancer drug (Mia-Paca-2): + (Additive relative to each agent alone (CI = 0.9-1 by Bliss Independence Model and <0.9 by Highest Single Agent Model)); synergy, additivity or antagonism of the combination of Example 3 with the anti-cancer drug (Panc-1): + (Additive relative to each agent alone (CI = 0.9-1 by Bliss Independence Model and <0.9 by Highest Single Agent Model)); synergy, additivity or antagonism of the combination of Example 3 with the anti-cancer drug (BxPC3): + + + + (Strong synergy relative to each agent alone (CI < 0.4 by Bliss Independence Model)); synergy, additivity or antagonism of the combination of Example 3 with the anti-cancer drug (HCT116): + + + (Synergy relative to each agent alone (CI = 0.4-0.74 by Bliss Independence Model)); synergy, additivity or antagonism of the combination of Example 3 with the anti-cancer drug (HT29): + (Additive relative to each agent alone (CI = 0.9-1 by Bliss Independence Model and <0.9 by Highest Single Agent Model)); synergy, additivity or antagonism of the combination of Example 3 with the anti-cancer drug (Colo205): + + + (Synergy relative to each agent alone (CI = 0.4-0.74 by Bliss Independence Model)); synergy, additivity or antagonism of the combination of Example 3 with the anti-cancer drug (LoVo): + + (Slight synergy relative to each agent alone (CI = 0.75-0.9 by Bliss Independence Model)); synergy, additivity or antagonism of the combination of Example 3 with the anti-cancer drug (DLD-1): + + + (Synergy relative to each agent alone (CI = 0.4-0.74 by Bliss Independence Model)); synergy, additivity or antagonism of the combination of Example 3 with the anti-cancer drug (H1299): + (Additive relative to each agent alone (CI = 0.9-1 by Bliss Independence Model and <0.9 by Highest Single Agent Model)); synergy, additivity or antagonism of the combination of Example 3 with the anti-cancer drug (A549): + + + + (Strong synergy relative to each agent alone (CI < 0.4 by Bliss Independence Model)); synergy, additivity or antagonism of the combination of Example 3 with the anti-cancer drug (H460): + + + (Synergy relative to each agent alone (CI = 0.4-0.74 by Bliss Independence Model)); synergy, additivity or antagonism of the combination of Example 3 with the anti-cancer drug (H1975): + + + (Synergy relative to each agent alone (CI = 0.4-0.74 by Bliss Independence Model)); synergy, additivity or antagonism of the combination of Example 3 with the anti-cancer drug (H23): + + + (Synergy relative to each agent alone (CI = 0.4-0.74 by Bliss Independence Model)); synergy, additivity or antagonism of the combination of Example 3 with the anti-cancer drug (MDA-MB-231): + + (Slight synergy relative to each agent alone (CI = 0.75-0.9 by Bliss Independence Model)); synergy, additivity or antagonism of the combination of Example 3 with the anti-cancer drug (MDA-MB-157): + + (Slight synergy relative to each agent alone (CI = 0.75-0.9 by Bliss Independence Model)); synergy, additivity or antagonism of the combination of Example 3 with the anti-cancer drug (BT-20): + + + (Synergy relative to each agent alone (CI = 0.4-0.74 by Bliss Independence Model)); synergy, additivity or antagonism of the combination of Example 3 with the anti-cancer drug (ZR-75-1): + + (Slight synergy relative to each agent alone (CI = 0.75-0.9 by Bliss Independence Model)); synergy, additivity or antagonism of the combination of Example 3 with the anti-cancer drug (786-O): + + + (Synergy relative to each agent alone (CI = 0.4-0.74 by Bliss Independence Model)); synergy, additivity or antagonism of the combination of Example 3 with the anti-cancer drug (Caki-1): + (Additive relative to each agent alone (CI = 0.9-1 by Bliss Independence Model and <0.9 by Highest Single Agent Model)); synergy, additivity or antagonism of the combination of Example 3 with the anti-cancer drug (Caki-2): − − − (Strongly antagonistic relative to each agent alone (CI > 1.49 by Highest Single Agent Model)); synergy, additivity or antagonism of the combination of Example 3 with the anti-cancer drug (A375): + + (Slight synergy relative to each agent alone (CI = 0.75-0.9 by Bliss Independence Model)); synergy, additivity or antagonism of the combination of Example 3 with the anti-cancer drug (SK-MEL-3): + (Additive relative to each agent alone (CI = 0.9-1 by Bliss Independence Model and <0.9 by Highest Single Agent Model)); synergy, additivity or antagonism of the combination of Example 3 with the anti-cancer drug (SK-MEL-24): + + (Slight synergy relative to each agent alone (CI = 0.75-0.9 by Bliss Independence Model)); synergy, additivity or antagonism of the combination of Example 3 with the anti-cancer drug (WM-115): + + (Slight synergy relative to each agent alone (CI = 0.75-0.9 by Bliss Independence Model)); synergy, additivity or antagonism of the combination of Example 3 with the anti-cancer drug (MeWO): + + (Slight synergy relative to each agent alone (CI = 0.75-0.9 by Bliss Independence Model)); synergy, additivity or antagonism of the combination of Example 3 with the anti-cancer drug (U266): + + (Slight synergy relative to each agent alone (CI = 0.75-0.9 by Bliss Independence Model)); synergy, additivity or antagonism of the combination of Example 3 with the anti-cancer drug (RPMI8226): + + (Slight synergy relative to each agent alone (CI = 0.75-0.9 by Bliss Independence Model)); synergy, additivity or antagonism of the combination of Example 3 with the anti-cancer drug (U87MG): + + (Slight synergy relative to each agent alone (CI = 0.75-0.9 by Bliss Independence Model)); synergy, additivity or antagonism of the combination of Example 3 with the anti-cancer drug (K562): + (Additive relative to each agent alone (CI = 0.9-1 by Bliss Independence Model and <0.9 by Highest Single Agent Model)); synergy, additivity or antagonism of the combination of Example 3 with the anti-cancer drug (HL60): + + (Slight synergy relative to each agent alone (CI = 0.75-0.9 by Bliss Independence Model)); synergy, additivity or antagonism of the combination of Example 3 with the anti-cancer drug (EOL-1): + + (Slight synergy relative to each agent alone (CI = 0.75-0.9 by Bliss Independence Model)); synergy, additivity or antagonism of the combination of Example 3 with the anti-cancer drug (MOLT4): + (Additive relative to each agent alone (CI = 0.9-1 by Bliss Independence Model and <0.9 by Highest Single Agent Model))
